Measured values reported in patent US11723908B2, “Quinazoline derivatives as antitumor agents” (SUZHOU ZANRONG PHARMA LIMITED, priority 2018, dated 2023).

How the values were obtained:
[1] = biological target: HER2 (Homo sapiens (Human), UniProt P04626); experiment: BT474 cellular assay (HER2 inhibition), phospho-HER2 ELISA; format: cell-based; conditions: inhibition of phosphor HER2, BT474 cells, 2 hours compound incubation
Procedure: Assay a) BT474 Cellular Assay (HER2 Inhibition) Inhibition of phosphor HER2 was determined by enzyme-linked immunosorbent assay (ELISA) in BT474 cells. BT474 cell line was purchased from [NT] number HTB-20). Human Phospho-ErbB2 ELISA kit was purchased from R&D systems (catalog number DYC1768). Day 1: When the cells reach 70-90% confluence, cells were trypsinized and re-suspended. 5000 cells per well were seeded to a 384-well plate. The plate was incubated at 37° C. with 5% CO2 for 24 hours. ELISA plate was coated with 2 μg/ml capture antibody, which was incubated at 4° C. overnight. Day 2: 25 nl compounds was dosed by Echo from source plate and the 384-well plate was incubated at 37° C. for 2 hours. 30 μl lysis buffer was added to each well and the 384-well plate was shaken softly at 4° C. for 30 minutes. The ELISA plate was washed, blocked and incubated at room temperature for 1-2 hours. The blocked ELISA plate was washed and 20 μl cell lysate was transferred from the 384-well plate to the ELISA plate, which was incubated overnight at 4° C. Day 3: The ELISA plate was washed 3 times. 25 μl/well detection antibody was added (diluted 1 by 2000 in 1% BSA in PBS). After 2 hours of incubation with detection antibody, the ELISA plate was washed 3 times, 25 μl/well TMB substrate was added and incubated for 10-15 minutes before stop solution was added. Absorbance at 450 nm and 570 nm was read within 30 minutes after adding the stop solution. […] The IC50 results are provided in Table 1 for some exemplary compounds.

[2] = biological target: wt-EGFR (Homo sapiens (Human), UniProt P00533); experiment: NCI H838 cellular assay (wt-EGFR inhibition), phospho-EGFR ELISA; format: cell-based; conditions: inhibition of phosphor wt-EGFR, NCI H838 cells, EGF 100 ng/ml
Sequence of wt-EGFR (P00533 25-1210): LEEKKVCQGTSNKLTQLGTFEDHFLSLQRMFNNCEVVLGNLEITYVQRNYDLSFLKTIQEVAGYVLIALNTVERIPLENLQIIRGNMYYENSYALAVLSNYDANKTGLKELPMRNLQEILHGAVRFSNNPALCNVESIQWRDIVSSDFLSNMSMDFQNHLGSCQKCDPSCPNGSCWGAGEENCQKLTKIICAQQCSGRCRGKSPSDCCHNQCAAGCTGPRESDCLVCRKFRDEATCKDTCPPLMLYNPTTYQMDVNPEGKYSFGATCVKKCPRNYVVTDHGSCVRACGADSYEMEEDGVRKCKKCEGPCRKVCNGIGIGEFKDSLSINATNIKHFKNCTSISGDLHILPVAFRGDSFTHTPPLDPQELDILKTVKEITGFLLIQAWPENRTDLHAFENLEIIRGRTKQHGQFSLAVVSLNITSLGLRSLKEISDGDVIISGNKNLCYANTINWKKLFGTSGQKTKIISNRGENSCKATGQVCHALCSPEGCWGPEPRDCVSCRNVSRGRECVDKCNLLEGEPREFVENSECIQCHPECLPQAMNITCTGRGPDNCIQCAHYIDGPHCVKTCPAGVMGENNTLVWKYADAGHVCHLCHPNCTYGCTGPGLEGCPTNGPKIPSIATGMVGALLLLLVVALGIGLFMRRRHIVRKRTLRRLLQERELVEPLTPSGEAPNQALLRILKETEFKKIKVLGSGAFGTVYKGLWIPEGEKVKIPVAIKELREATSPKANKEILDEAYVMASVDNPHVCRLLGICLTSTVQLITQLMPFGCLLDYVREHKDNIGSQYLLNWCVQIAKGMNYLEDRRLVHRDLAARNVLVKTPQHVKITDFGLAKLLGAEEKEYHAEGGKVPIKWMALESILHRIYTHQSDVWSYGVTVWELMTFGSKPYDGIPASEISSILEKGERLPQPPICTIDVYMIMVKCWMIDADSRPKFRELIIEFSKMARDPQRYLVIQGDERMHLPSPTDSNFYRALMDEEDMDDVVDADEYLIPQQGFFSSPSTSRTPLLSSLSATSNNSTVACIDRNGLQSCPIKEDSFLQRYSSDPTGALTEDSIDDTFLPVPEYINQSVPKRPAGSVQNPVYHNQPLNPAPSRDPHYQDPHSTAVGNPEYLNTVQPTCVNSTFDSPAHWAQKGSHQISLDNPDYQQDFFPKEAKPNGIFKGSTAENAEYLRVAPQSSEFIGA
Procedure: Assay b) NCI H838 Cellular Assay (Wt-EGFR Inhibition) Inhibition of phosphor wt-EGFR was determined by enzyme-linked immunosorbent assay (ELISA) in NCI H838 cells (ATCC, catalog number CRL-5844). Human Phospho-EGFR DuoSet IC ELISA kit was purchased from R&D systems (catalog number DYC1095). Day 1: When the cells reach 70-90% confluence, cells were trypsinized and re-suspended. 5000 cells per well were seeded to a 384-well plate. The plate was incubated at 37° C. with 5% CO2 for 24 hours. Day 2: Cell culture medium was replaced with 40 μL FBS-Free RPMI1640. After 2 hours of starvation, the 384-well plate was dosed with 40 nL of compounds by Echo from source plate and the 384-well plate was incubated at 37° C. with 5% CO2 for 2 hours. After 2 hours of incubation with compounds, EGF (final concentration at 100 ng/ml) was added to the plate which was incubated at 37° C. with 5% CO2 for 5-10 minutes. Medium was discarded from the plate and 30 μl/well lysis buffer was added to the plate which was incubated at 4° C. for 10 minutes. The cell lysates can be stored at −80° C. in cell plates but must be thawed at room temperature for at least 30 minutes prior to use and continuing the assay. ELISA plate was coated by diluting capture antibody to 4 μg/ml with PBS, and 25 μl/well was dispensed to 384 well UltraCruz® ELISA Plate, which was incubated at 4° C. overnight. Day 3: After the plates were washed three times with 100 μl/well of wash buffer, the plates were blocked by adding 75 μl of Block Buffer to each well and incubated at room temperature for 3 hours. After the plates were washed three times with 100 μl/well of wash buffer, 20 μl cell lysate was transferred to the blocked ELISA plate which was incubated for 2 hours at room temperature. After the plates were washed three times with 100 μl/well of wash buffer, 25 μl/well detection antibody (dilute 1 in 900 in assay buffer) was added the plate which was incubated for 2 hours, protected from light. After washed three times, 25 μl/well TMB substrate was added to the ELISA plate which was incubated for about 10-15 min, protected from light before addition of 25 μl/well stop solution. Absorbance was read at 450 nm and 570 nm within 30 minutes.

Sequence of HER2 (P04626 23-1255): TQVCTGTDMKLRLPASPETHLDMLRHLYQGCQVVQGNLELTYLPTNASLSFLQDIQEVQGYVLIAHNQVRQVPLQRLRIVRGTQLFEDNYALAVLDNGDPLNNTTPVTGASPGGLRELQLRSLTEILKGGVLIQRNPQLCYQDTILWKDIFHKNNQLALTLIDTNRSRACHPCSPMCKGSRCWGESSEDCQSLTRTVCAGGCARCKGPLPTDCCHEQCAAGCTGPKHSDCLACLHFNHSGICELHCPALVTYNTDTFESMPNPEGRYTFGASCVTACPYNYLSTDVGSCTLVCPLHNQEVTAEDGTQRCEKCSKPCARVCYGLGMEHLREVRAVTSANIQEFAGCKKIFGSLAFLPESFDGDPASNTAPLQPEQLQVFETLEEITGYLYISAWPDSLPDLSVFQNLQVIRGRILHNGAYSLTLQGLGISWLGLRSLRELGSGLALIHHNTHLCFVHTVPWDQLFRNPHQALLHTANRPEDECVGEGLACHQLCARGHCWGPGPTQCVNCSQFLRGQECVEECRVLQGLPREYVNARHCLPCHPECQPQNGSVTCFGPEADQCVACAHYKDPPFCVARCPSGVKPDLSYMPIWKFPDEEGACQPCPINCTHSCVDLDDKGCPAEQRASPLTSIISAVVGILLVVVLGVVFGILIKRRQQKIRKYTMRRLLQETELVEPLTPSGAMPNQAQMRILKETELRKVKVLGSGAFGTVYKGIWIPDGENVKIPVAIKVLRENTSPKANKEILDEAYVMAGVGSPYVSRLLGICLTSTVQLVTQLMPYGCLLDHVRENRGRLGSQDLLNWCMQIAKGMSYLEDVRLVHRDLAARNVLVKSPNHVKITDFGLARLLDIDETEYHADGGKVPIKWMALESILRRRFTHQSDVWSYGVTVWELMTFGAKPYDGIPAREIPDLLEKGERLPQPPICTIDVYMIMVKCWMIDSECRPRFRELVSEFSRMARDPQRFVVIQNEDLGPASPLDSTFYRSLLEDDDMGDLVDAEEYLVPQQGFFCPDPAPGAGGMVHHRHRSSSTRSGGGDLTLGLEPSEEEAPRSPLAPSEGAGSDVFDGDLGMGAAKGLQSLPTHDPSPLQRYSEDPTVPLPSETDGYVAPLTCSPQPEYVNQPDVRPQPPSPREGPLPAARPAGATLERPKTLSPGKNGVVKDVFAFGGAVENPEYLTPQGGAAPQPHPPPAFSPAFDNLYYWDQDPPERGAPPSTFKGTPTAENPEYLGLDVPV

Row | IC50 [1] [nM] | IC50 [2] [nM] | SMILES
1 | 24 | 2030 | COc1ccc2ncnc(Nc3ccc(Oc4cc5ncnn5cn4)c(C)c3)c2c1N1CC2(C[C@H](F)CN2C)C1 (single isomer, unassigned) [Example 43]
2 | 5 | 234 | COc1ccc2ncnc(Nc3ccc(Oc4cc5ncnn5cn4)c(C)c3)c2c1N1CC2(C[C@@H](F)CN2C)C1 (single isomer, unassigned) [Example 44]
3 | 4.1 | 4540 | COc1ccc2ncnc(Nc3ccc(Oc4cc5ncnn5cn4)c(C)c3)c2c1N1CC2(C[C@H](F)CCN2C)C1 (single isomer, unassigned) [Example 47]
4 | 6.7 | 364 | COc1ccc2ncnc(Nc3ccc(Oc4cc5ncnn5cn4)c(C)c3)c2c1N1CC2(C[C@@H](F)CCN2C)C1 (single isomer, unassigned) [Example 48]
5 | 31 | 330 | COc1ccc2ncnc(Nc3ccc(Oc4cc5ncnn5cn4)c(C)c3)c2c1N1CC[C@H](N(C)C)C1 [Example 3, (S)—N-(4-([1,2,4]triazolo[1,5-c]pyrimidin-7-yloxy)-3-methylphenyl)-5-(3-(dimethylamino)pyrrolidin-1-yl)-6-methoxyquinazolin-4-amine]
6 | 105 | > 10000 | COc1ccc2ncnc(Nc3ccc(Oc4cc5ncnn5cn4)c(C)c3)c2c1N1CCOCC1 [Example 4, N-(4-([1,2,4]triazolo[1,5-c]pyrimidin-7-yloxy)-3-methylphenyl)-6-methoxy-5-morpholinoquinazolin-4-amine]
7 | 9.9 | – | COc1ccc2ncnc(Nc3ccc(Oc4cc5ncnn5cn4)c(C)c3)c2c1O[C@@H]1CN(C)CC1(F)F [Example 74, (R)—N-(4-([1,2,4]triazolo[1,5-c]pyrimidin-7-yloxy)-3-methylphenyl)-5-((4,4-difluoro-1-methylpyrrolidin-3-yl)oxy)-6-methoxyquinazolin-4-amine]
8 | 13 | – | COc1ccc2ncnc(Nc3ccc(Oc4cc5ncnn5cn4)c(C)c3)c2c1O[C@H]1CN(C)CC1(F)F [Example 75, (S)—N-(4-([1,2,4]triazolo[1,5-c]pyrimidin-7-yloxy)-3-methylphenyl)-5-((4,4-difluoro-1-methylpyrrolidin-3-yl)oxy)-6-methoxyquinazolin-4-amine]
9 | 11 | – | COc1ccc2ncnc(Nc3ccc(Oc4cc5ncnn5cn4)c(C)c3)c2c1OC1CCNCC1(F)F (stereo not shown) [Example 76, N-(4-([1,2,4]triazolo[1,5-c]pyrimidin-7-yloxy)-3-methylphenyl)-5-((3,3-difluoropiperidin-4-yl)oxy)-6-methoxyquinazolin-4-amine]
10 | 14 | – | [2H]C([2H])([2H])Oc1ccc2ncnc(Nc3ccc(Oc4cc5ncnn5cn4)c(C)c3)c2c1O[C@@H]1CCN(C([2H])([2H])[2H])CC1(F)F [Example 77, (R)—N-(4-([1,2,4]triazolo[1,5-c]pyrimidin-7-yloxy)-3-methylphenyl)-5-((3,3-difluoro-1-(methyl-d3)piperidin-4-yl)oxy)-6-(methoxy-d3)quinazolin-4-amine]
11 | 11 | – | COc1ccc2ncnc(Nc3ccc(Oc4cc5ncnn5cn4)c(C)c3)c2c1O[C@@H]1CCN(C(C)C)CC1(F)F [Example 78, (R)-N-(4-([1,2,4]triazolo[1,5-c]pyrimidin-7-yloxy)-3-methylphenyl)-5-((3,3-difluoro-1-isopropylpiperidin-4-yl)oxy)-6-methoxyquinazolin-4-amine]
12 | 9.8 | – | COc1ccc2ncnc(Nc3ccc(Oc4cc5ncnn5cn4)c(C)c3)c2c1O[C@@H]1CCN(C2CC2)CC1(F)F [Example 79, (R)-N-(4-([1,2,4]triazolo[1,5-c]pyrimidin-7-yloxy)-3-methylphenyl)-5-((1-cyclopropyl-3,3-difluoropiperidin-4-yl)oxy)-6-methoxyquinazolin-4-amine]
13 | 390 | – | C=CC(=O)N1CC=C(c2ccc3ncnc(Nc4ccc(Oc5cc6ncnn6cn5)c(C)c4)c3c2N2CC(N(C)C)C2)CC1 [Example 80, 1-(4-(4-((4-([1,2,4]triazolo[1,5-c]pyrimidin-7-yloxy)-3-methylphenyl)amino)-5-(3-(dimethylamino)azetidin-1-yl)quinazolin-6-yl)-3,6-dihydropyridin-1(2H)-yl)prop-2-en-1-one]
14 | 225 | – | C=CC(=O)N1CC=C(c2ccc3ncnc(Nc4ccc(Oc5cc6ncnn6cn5)c(C)c4)c3c2O[C@@H]2CCN(C)CC2(F)F)CC1 [Example 81, (R)-1-(4-(4-((4-([1,2,4]triazolo[1,5-c]pyrimidin-7-yloxy)-3-methylphenyl)amino)-5-((3,3-difluoro-1-methylpiperidin-4-yl)oxy)quinazolin-6-yl)-3,6-dihydropyridin-1(2H)-yl)prop-2-en-1-one]
15 | 179 | – | C=CC(=O)N1CCC=C(c2ccc3ncnc(Nc4ccc(Oc5cc6ncnn6cn5)c(C)c4)c3c2N2CC(N(C)C)C2)C1 [Example 82, 1-(5-(4-((4-([1,2,4]triazolo[1,5-c]pyrimidin-7-yloxy)-3-methylphenyl)amino)-5-(3-(dimethylamino)azetidin-1-yl)quinazolin-6-yl)-3,6-dihydropyridin-1(2H)-yl)prop-2-en-1-one]
16 | 207 | – | C=CC(=O)N1CCC=C(c2cc(N3CC(N(C)C)C3)c3c(Nc4ccc(Oc5cc6ncnn6cn5)c(C)c4)ncnc3c2)C1 [Example 84, 1-(5-(4-((4-([1,2,4]triazolo[1,5-c]pyrimidin-7-yloxy)-3-methylphenyl)amino)-5-(3-(dimethylamino)azetidin-1-yl)quinazolin-7-yl)-3,6-dihydropyridin-1(2H)-yl)prop-2-en-1-one]
17 | 208 | – | COc1ccc2ncc(C#N)c(Nc3ccc(Oc4cc5ncnn5cn4)c(C)c3)c2c1O[C@@H]1CCN(C)CC1(F)F [Example 86, (R)-4-((4-([1,2,4]triazolo[1,5-c]pyrimidin-7-yloxy)-3-methylphenyl)amino)-5-((3,3-difluoro-1-methylpiperidin-4-yl)oxy)-6-methoxyquinoline-3-carbonitrile]
18 | 267 | – | Cc1cc(Nc2ncnc3ccc(NC(=O)/C=C/CN(C)C)c(O[C@@H]4CCN(C)CC4(F)F)c23)ccc1Oc1cc2ncnn2cn1 [Example 92, (R,E)-N-(4-((4-([1,2,4]triazolo[1,5-c]pyrimidin-7-yloxy)-3-methylphenyl)amino)-5-((3,3-difluoro-1-methylpiperidin-4-yl)oxy)quinazolin-6-yl)-4-(dimethylamino)but-2-enamide]
19 | 48 | – | Cc1cc(Nc2ncnc3ccc(NC(=O)/C=C/[C@H]4CCCN4C)c(O[C@@H]4CCN(C)CC4(F)F)c23)ccc1Oc1cc2ncnn2cn1 [Example 95, (E)-N-(4-((4-([1,2,4]triazolo[1,5-c]pyrimidin-7-yloxy)-3-methylphenyl)amino)-5-(((R)-3,3-difluoro-1-methylpiperidin-4-yl)oxy)quinazolin-6-yl)-3-((R)-1-methylpyrrolidin-2-yl)acrylamide]
20 | 170 | – | COc1cc2ncnc(Nc3ccc(Oc4cc5ncnn5cn4)c(C)c3)c2c(O[C@@H]2CCN(C)CC2(F)F)c1OC [Example 99, (R)—N-(4-([1,2,4]triazolo[1,5-c]pyrimidin-7-yloxy)-3-methylphenyl)-5-((3,3-difluoro-1-methylpiperidin-4-yl)oxy)-6,7-dimethoxyquinazolin-4-amine]

Row | SMILES | IC50 [1] [nM] | IC50 [2] [nM]
21 | COc1ccc2ncnc(Nc3ccc(Oc4cc5ncnn5cn4)c(C)c3)c2c1N1CC(N(C)C)C1 [Example 1, N-(4-([1,2,4]triazolo[1,5-c]pyrimidin-7-yloxy)-3-methylphenyl)-5-(3-(dimethylamino)azetidin-1-yl)-6-methoxyquinazolin-4-amine] | 9.2 | 2800
